Paper PMC8151276, “An Integrated Approach toward NanoBRET Tracers for Analysis of GPCR Ligand Engagement” (Molecules, 2021)

Assays:
Type in all cases: binding
[1] = molecular target: T1, PTGIR (Homo sapiens, UniProt P43119); assay: NanoBRET screen HiBiT-PTGIR in HEK293; conditions: PTGIR
T1 construct: purchased Promega (in-house HiBiT-GPCR construct library, NanoBRET)
Method: (§1) Each tracer candidate was screened across the entire library of HiBiT-GPCR constructs using NanoBRET as the detection modality. As depicted in Figure 4A, the specificity of interactions was evaluated through decrease in BRET due to competitive displacement of a bound tracer by excess parental compound. Each tracer was analyzed for binding to each HiBiT-GPCR fusion in the absence and in the presence of competing parental compound. Briefly, HEK293 cells were transfected with HiBiT-GPCR constructs diluted into promoterless DNA to reduce expression and maximize translocation to the cell surface. Each tracer candidate was then screened at concentrations of 1 μM and 0.1 μM across cells expressing these fusions. Cells were treated for 1.5 h with tracer either alone or in the presence of 20 μM competing parental compound (i.e., control). BRET was measured upon addition of purified LgBiT and subsequent complementation with HiBiT genetically fused to a GPCR. The specificity of interactions was assessed through a decrease in BRET signal due to competitive displacement of the bound tracer. To further gauge the robustness of these interactions, the fold response over the control (i.e., BRETtracer/BRETcontrol) was calculated. We chose a 1.5-fold response, which translates to ≥7-fold signal over noise as the minimal threshold required to score an interaction as positive. […]. Below we highlight the screening results obtained for our exemplary fluorescent tracers based on Clozapine, Amitriptyline and AZD1283.
(§2) HiBiT-GPCR DNA constructs were diluted in 10 mM Tris pH 8 to a final concentration of 0.01 μg/μL, arrayed in 96-well plates and stored at −20 °C. For transfection, HEK293 cells were suspended in Opti-MEM (without phenol red) supplemented with 2% fetal bovine serum (Seradigm) and 100 units/mL penicillin–streptomycin (Gibco) at a final concentration of 220,000 cells/mL and dispensed into white 96-well plates at 90 μL/well. Subsequent transfections and screens were carried using an Agilent Bravo Automated Liquid Handling Platform. First, the 96-well HiBiT DNA arrays were diluted 25-fold in Opti-MEM (without serum or phenol red) to a final concentration of 0.0004 μg/μL and 20 μL of the diluted DNAs were transferred into new 96-well plates. Next, promoterless carrier DNA (1 μg/μL) was diluted 25-fold (0.04 μg/μL) and then dispensed into the diluted arrays at 20 μL/well. Following brief mixing, Viafect transfection reagent (Promega) diluted 16-fold into Opti-MEM was dispensed into the plates at 40 μL/well. After mixing by pipetting, plates were incubated for 10 min on the pipetting station deck. The DNA-transfection reagent complexes were then added to plates containing cells. To facilitate the screen, 10 μL of DNA-transfection reagent complexes were added in duplicates to the top 4 and bottom 4 rows, resulting in two identical 48-well arrays per plate. Plates with transfected cells were incubated for 18–20 h at 37 °C/5% CO2. A screen of each tracer across the entire library using two different concentrations requires duplicate plates of transfected cells. Depending on the number of tracers being screened, transfections can be scaled up using the same ratios. The next day, for each tracer, four 20× screening solutions in tracer dilution buffer (Promega) were prepared: two duplicates at final concentration of 20 μM and two duplicates at a final concentration of 2 μM. A competing unmodified compound was added to one of each duplicate at a final concentration of 400 μM. The four resulting solutions were diluted 4-fold in Opti-MEM without serum or phenol red to generate 5× solutions (5 µM and 0.5 µM tracer +/− 100 μM competing compound). To screen the library, a BioTek MultiFlo FX liquid dispenser was used to dispense 22.5 µL of tracer solution to the top 4 rows and 22.5 µL tracer + competing compound solution to the 4 bottom rows. Plates were briefly mixed on an orbital shaker and incubated for 1.5 h at room temperature. […]

[2] = molecular target: T2, XCR1 (Homo sapiens, UniProt P46094); assay: NanoBRET screen HiBiT-XCR1 in HEK293; conditions: XCR1
T2 construct: purchased Promega (in-house HiBiT-GPCR construct library, NanoBRET)
T2 sequence (P46094 1-333): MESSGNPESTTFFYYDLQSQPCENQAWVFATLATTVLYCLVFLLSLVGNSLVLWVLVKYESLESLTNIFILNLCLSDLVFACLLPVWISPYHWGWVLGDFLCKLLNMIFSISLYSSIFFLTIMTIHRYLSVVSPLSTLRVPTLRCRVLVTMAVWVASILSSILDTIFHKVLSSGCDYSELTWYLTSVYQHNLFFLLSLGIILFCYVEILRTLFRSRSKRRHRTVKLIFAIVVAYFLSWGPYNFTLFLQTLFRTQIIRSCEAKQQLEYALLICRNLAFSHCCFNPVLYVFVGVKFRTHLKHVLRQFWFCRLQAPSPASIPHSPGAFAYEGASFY
Method: as §1, §2

[3] = molecular target: T3, P2RY2 (Homo sapiens, UniProt P41231); assay: NanoBRET screen HiBiT-P2RY2 in HEK293; conditions: P2RY2
T3 construct: purchased Promega (in-house HiBiT-GPCR construct library, NanoBRET)
Method: as §1, §2

[4] = molecular target: T4, PTGER4 (Homo sapiens, UniProt P35408); assay: NanoBRET screen HiBiT-PTGER4 in HEK293; conditions: PTGER4
T4 construct: purchased Promega (in-house HiBiT-GPCR construct library, NanoBRET)
Method: as §1, §2

[5] = molecular target: T5, GCGR (Homo sapiens, UniProt P47871); assay: NanoBRET screen HiBiT-GCGR in HEK293; conditions: GCGR
T5 construct: purchased Promega (in-house HiBiT-GPCR construct library, NanoBRET)
Method: as §1, §2

T5 sequence (P47871 26-477): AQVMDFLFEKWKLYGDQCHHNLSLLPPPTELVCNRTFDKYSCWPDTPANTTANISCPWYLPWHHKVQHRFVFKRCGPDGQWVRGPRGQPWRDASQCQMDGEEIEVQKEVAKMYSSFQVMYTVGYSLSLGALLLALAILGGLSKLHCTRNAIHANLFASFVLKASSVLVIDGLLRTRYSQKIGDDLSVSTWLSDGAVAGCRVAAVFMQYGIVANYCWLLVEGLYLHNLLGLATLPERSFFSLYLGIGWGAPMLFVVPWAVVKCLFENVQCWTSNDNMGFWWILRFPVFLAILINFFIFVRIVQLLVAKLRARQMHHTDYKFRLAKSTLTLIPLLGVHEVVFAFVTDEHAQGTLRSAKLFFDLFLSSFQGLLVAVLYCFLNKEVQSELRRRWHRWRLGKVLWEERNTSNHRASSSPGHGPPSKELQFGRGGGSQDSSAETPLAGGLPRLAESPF
T3 sequence (P41231 whole entry): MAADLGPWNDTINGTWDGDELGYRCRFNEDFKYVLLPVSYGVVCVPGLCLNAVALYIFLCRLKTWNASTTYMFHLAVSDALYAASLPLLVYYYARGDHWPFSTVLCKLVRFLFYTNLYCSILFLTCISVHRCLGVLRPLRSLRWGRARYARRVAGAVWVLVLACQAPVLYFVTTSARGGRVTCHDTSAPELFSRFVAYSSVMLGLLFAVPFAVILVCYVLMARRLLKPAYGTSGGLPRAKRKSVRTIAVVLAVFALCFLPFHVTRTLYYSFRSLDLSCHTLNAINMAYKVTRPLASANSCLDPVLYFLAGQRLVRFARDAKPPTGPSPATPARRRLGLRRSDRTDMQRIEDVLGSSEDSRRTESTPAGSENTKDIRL
T1 sequence (P43119 whole entry): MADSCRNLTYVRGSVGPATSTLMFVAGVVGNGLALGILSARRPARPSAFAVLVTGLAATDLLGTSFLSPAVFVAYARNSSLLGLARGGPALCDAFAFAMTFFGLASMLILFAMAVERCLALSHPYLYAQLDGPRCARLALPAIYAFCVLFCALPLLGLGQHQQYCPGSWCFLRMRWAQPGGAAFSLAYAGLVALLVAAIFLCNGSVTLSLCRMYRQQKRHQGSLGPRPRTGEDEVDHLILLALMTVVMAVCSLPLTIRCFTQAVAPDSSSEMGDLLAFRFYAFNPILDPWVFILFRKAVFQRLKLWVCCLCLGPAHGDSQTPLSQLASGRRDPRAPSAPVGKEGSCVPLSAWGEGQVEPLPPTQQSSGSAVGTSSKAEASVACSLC
T4 sequence (P35408 whole entry): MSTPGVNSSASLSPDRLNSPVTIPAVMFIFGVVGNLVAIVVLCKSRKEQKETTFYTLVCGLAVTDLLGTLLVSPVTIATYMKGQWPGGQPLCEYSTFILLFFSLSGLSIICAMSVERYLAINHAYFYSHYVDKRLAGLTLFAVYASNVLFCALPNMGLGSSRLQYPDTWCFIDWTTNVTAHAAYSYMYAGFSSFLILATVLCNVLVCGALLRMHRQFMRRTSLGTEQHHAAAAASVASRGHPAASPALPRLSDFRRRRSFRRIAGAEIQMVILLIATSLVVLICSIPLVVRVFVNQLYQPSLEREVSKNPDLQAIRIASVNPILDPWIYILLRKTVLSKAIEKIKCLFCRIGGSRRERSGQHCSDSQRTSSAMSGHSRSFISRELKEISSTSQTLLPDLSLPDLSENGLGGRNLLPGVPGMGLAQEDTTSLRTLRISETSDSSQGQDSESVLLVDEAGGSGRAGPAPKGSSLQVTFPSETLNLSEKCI

In the case of O=C(CCc1ccc2n1[B-](F)(F)[N+]1=C(c3ccc[nH]3)C=CC1=C2)NCCOCCOCCNC(=O)OCCOCCN1CCN(C2=Nc3ccccc3Sc3ccccc32)CC1 [Quetiapine-a-2-NB590], the “NanoBRET Fold Response” value ([1]; tracer 0.1μM) is reported as 1.03, the “NanoBRET Fold Response” value ([1]; tracer 1μM) is reported as 0.94 and the “NanoBRET Fold Response” value ([2]; tracer 0.1μM) is reported as 1.07. The “NanoBRET Fold Response” value ([2]; tracer 1μM) was 1.04, the “NanoBRET Fold Response” value ([3]; tracer 0.1μM) was 1.07 and the “NanoBRET Fold Response” value ([3]; tracer 1μM) was 0.95. For the same compound, the “NanoBRET Fold Response” value ([4]; tracer 0.1μM) was 1.02, the “NanoBRET Fold Response” value ([4]; tracer 1μM) was 1.08 and the “NanoBRET Fold Response” value ([5]; tracer 0.1μM) was 0.94. For the same compound, the “NanoBRET Fold Response” value ([5]; tracer 1μM) was 0.73.
With Cc1nc2n(c(=O)c1CCN1CCC(c3noc4cc(F)ccc34)CC1)CCCC2OC(=O)NCCOCCOCCOCCOCCNC(=O)CCc1ccc2n1[B-](F)(F)[N+]1=C(c3ccc[nH]3)C=CC1=C2 (centres unmarked) [Risperidone-2-NB590] the “NanoBRET Fold Response” value ([1]; tracer 0.1μM) was 1.02, the “NanoBRET Fold Response” value ([1]; tracer 1μM) was 1.01 and the “NanoBRET Fold Response” value ([2]; tracer 0.1μM) was 0.97. For the same compound, the “NanoBRET Fold Response” value ([2]; tracer 1μM) was 0.88, the “NanoBRET Fold Response” value ([3]; tracer 0.1μM) was 1.08 and the “NanoBRET Fold Response” value ([3]; tracer 1μM) was 0.86. For the same compound, the “NanoBRET Fold Response” value ([4]; tracer 0.1μM) was 1.00, the “NanoBRET Fold Response” value ([4]; tracer 1μM) was 1.04 and the “NanoBRET Fold Response” value ([5]; tracer 0.1μM) was 0.97. For the same compound, the “NanoBRET Fold Response” value ([5]; tracer 1μM) was 0.93.
With CC(C)N(CC[C@H](c1ccccc1)c1cc(CCNC(=O)CCOCCOCCOCCOCCNC(=O)CCc2ccc3n2[B-](F)(F)[N+]2=C(c4ccc[nH]4)C=CC2=C3)ccc1O)C(C)C [Tolterodine-2-NB590] the “NanoBRET Fold Response” value ([1]; tracer 0.1μM) was 1.07, the “NanoBRET Fold Response” value ([1]; tracer 1μM) was 1.12 and the “NanoBRET Fold Response” value ([2]; tracer 0.1μM) was 0.81. The “NanoBRET Fold Response” value ([2]; tracer 1μM) was 1.17, the “NanoBRET Fold Response” value ([3]; tracer 0.1μM) was 1.06 and the “NanoBRET Fold Response” value ([3]; tracer 1μM) was 1.07. The “NanoBRET Fold Response” value ([4]; tracer 0.1μM) was 1.00, the “NanoBRET Fold Response” value ([4]; tracer 1μM) was 0.99 and the “NanoBRET Fold Response” value ([5]; tracer 0.1μM) was 1.32. The “NanoBRET Fold Response” value ([5]; tracer 1μM) was 1.04.
With CC(C)N(CC[C@H](c1ccccc1)c1cc(CCNC(=O)c2ccc(CNC(=O)CCc3ccc4n3[B-](F)(F)[N+]3=C(c5ccc[nH]5)C=CC3=C4)cc2)ccc1O)C(C)C [Tolterodine-BZ-NB590] the “NanoBRET Fold Response” value ([1]; tracer 0.1μM) was 1.00, the “NanoBRET Fold Response” value ([1]; tracer 1μM) was 1.04 and the “NanoBRET Fold Response” value ([2]; tracer 0.1μM) was 0.80. For the same compound, the “NanoBRET Fold Response” value ([2]; tracer 1μM) was 0.95, the “NanoBRET Fold Response” value ([3]; tracer 0.1μM) was 1.02 and the “NanoBRET Fold Response” value ([3]; tracer 1μM) was 1.04. For the same compound, the “NanoBRET Fold Response” value ([4]; tracer 0.1μM) was 1.02, the “NanoBRET Fold Response” value ([4]; tracer 1μM) was 1.04 and the “NanoBRET Fold Response” value ([5]; tracer 0.1μM) was 0.82. The “NanoBRET Fold Response” value ([5]; tracer 1μM) was 1.00.
With CCCn1c(=O)c2[nH]c(-c3ccc(OCC(=O)NCCNC(=O)CCOCCNC(=O)c4ccc(CNC(=O)CCc5ccc6n5[B-](F)(F)[N+]5=C(c7ccc[nH]7)C=CC5=C6)cc4)cc3)nc2n(CCC)c1=O [XAC-3-NB590] the “NanoBRET Fold Response” value ([1]; tracer 0.1μM) was 0.99, the “NanoBRET Fold Response” value ([1]; tracer 1μM) was 1.05 and the “NanoBRET Fold Response” value ([2]; tracer 0.1μM) was 0.87. For the same compound, the “NanoBRET Fold Response” value ([2]; tracer 1μM) was 0.98, the “NanoBRET Fold Response” value ([3]; tracer 0.1μM) was 0.96 and the “NanoBRET Fold Response” value ([3]; tracer 1μM) was 0.95. For the same compound, the “NanoBRET Fold Response” value ([4]; tracer 0.1μM) was 1.15, the “NanoBRET Fold Response” value ([4]; tracer 1μM) was 1.01 and the “NanoBRET Fold Response” value ([5]; tracer 0.1μM) was 1.03. For the same compound, the “NanoBRET Fold Response” value ([5]; tracer 1μM) was 0.96.
